One assay deals with HAP40. Put plainly: Macrocycle precipitation (MP), co-purification of HAP40, LC-MS/MS. In kind it is binding, human. The note with it: HEK293T lysate versus HTT CRISPR knockout line. The text has this:
To assess macrocycle selectivity and identify potential HTT interacting proteins, we performed LC-MS/MS analysis of the proteins in the MP eluates. To control for non-specific binding, we performed MPs using lysates from a HTT CRISPR knockout cell line ([Jung et al., 2021]). Across all macrocycles, HTT emerged as the most enriched protein after background subtraction (Figure 5b). Given we performed affinity purification using macrocycles targeting distinct HTT surfaces, we hypothesized that any real HTT protein binder might be co-purified with two or more macrocycles. […] In contrast, HAP40 was not enriched by HL5, consistent with its specificity for apo HTT.
Macrocycles were pre-conjugated to streptavidin beads (Cytiva, 17-5113-01) by incubating with a 30 μL slurry of beads per macrocycle purification (MP) in Lysis Buffer (10 mM Tris-HCl, pH 7.9, 150 mM NaCl, 0.1% NP-40, 1:500 protease inhibitor cocktail (Sigma-Aldrich), 1:1,000 benzonase nuclease, and 2 mM MgCl2) for 1 hour at 4°C. A concentration of 1.25 μM macrocycle was used for conjugation. After incubation, beads were washed three times with 500 μL Lysis Buffer to remove unbound macrocycles and resuspended in 500 μL of lysate at 4 mg/mL protein concentration.
Cells were harvested by centrifugation at 1,500 rpm for 5 minutes, washed twice with PBS, and snap-frozen. Cell pellets were then resuspended in 500 μL of Lysis Buffer (as described above) and incubated on an end-over-end rotator at 4°C for 1 hour. Lysates were clarified by centrifugation at 20,000g for 15 minutes at 4°C, and the supernatant was transferred to fresh 1.5 mL Eppendorf tubes. Protein concentration was determined by BCA assay (Thermo Fisher Scientific, 23225), yielding approximately 4 mg of protein on average. Lysates were diluted to a final concentration of 4 mg/mL for use, providing […] of total protein per MP.
Macrocycle-conjugated beads were incubated with 2 mg of lysate in Lysis Buffer for 1 hour at 4°C with rotation. After incubation, beads were collected by centrifugation at 3,000 rpm, and the flow-through was saved for analysis. Beads were then washed sequentially with 1 mL of Wash Buffer 1 (10 mM Tris-HCl, pH 7.9, 100 mM NaCl, 0.1% NP-40) and twice with Wash Buffer 2 (Wash Buffer 1 without detergent). Lastly, bound proteins were eluted from the beads with 200 μL of 0.5 M NH4OH and flash-frozen in liquid nitrogen.
All sample preparation, LC MS/MS data collection, and MS data searches were carried out at the SPARC BioCentre at The Hospital for Sick Children (Toronto, ON, Canada). […] Samples were analyzed by liquid chromatography tandem mass spectrometry (LC-MS/MS) using an EASY-nanoLC 1200 system with a 1 h analysis and an Orbitrap Fusion™ Lumos™ Tribrid™ Mass Spectrometer (Thermo Fisher Scientific). […]

A further assay concerns the target T1, HTTQ23-HAP40 (Homo sapiens, UniProt P23610+P42858, INS38QQ).
T1 construct: Full-length wildtype HTT with a polyQ tract of 23 glutamines; FLAG; made in house; host or cells: Sf9 insect cells (baculovirus)
In words: Differential hydrogen-deuterium exchange mass spectrometry (ΔHDX-MS). It counts as binding. The conditions noted are these: 15 μM protein, 1:4 macrocycle, labeling 0.5, 5, 30 mins at 20 °C. Here is the method: Samples were labeled at 3 timepoints (0.5, 5, 30 mins) with 87% (v/v) deuteration buffer (10 mM Phosphate Buffer pD 7.5, 150 mM NaCl) at 20 °C. The HDX reaction was quenched at 50% (v/v) with 7.5 M Guanidine-HCl, 0.5 M TCEP, 100 mM Phosphate Buffer pH 2.5 at 0 °C for 2 min and subsequently diluted with an equal volume of quench dilution buffer (100 mM Phosphate Buffer, pH 2.5). The protein was digested using 1:1 Nepenthesin(II)-Pepsin (Affipro) followed by desalting (ACQUITY UPLC BEH C18 VanGuard Pre-column, Waters) and reverse-phase separation (ACQUITY UPLC BEH C18 Column, Waters). Liquid handling was achieved using the ACQUITY UPLC M-Class System with HDX Technology (Waters) and PAL3 Robotic Tool Change (LEAP, Trajan Scientific and Medical). The peptides were then analyzed using the Select Series Cyclic IMS mass spectrometer (Q-IMS-TOF, Waters). Peptide identification and HDX data analysis were achieved using ProteinLynx Global Server 3.0.3 (Waters) and DynamX 3.0 (Waters), respectively. Microsoft Excel and PyMOL 2.5 were used for visual presentation of HDX data. An AlphaFold 3 model was used to incorporate missing loops for depicting HTTQ23 and HTTQ23-HAP40. The peptide sequence coverage for HTT and HAP40 was 56.6–76.8% and 77.4–82%, respectively (Supplementary Figure 3–5). […]

Where a SMILES comes first, the peptide text is derived from it. Bridges are numbered along the chain shown (N, C = ends).

T1 sequence (P42858 with tags, fused parts or gaps INS38QQ): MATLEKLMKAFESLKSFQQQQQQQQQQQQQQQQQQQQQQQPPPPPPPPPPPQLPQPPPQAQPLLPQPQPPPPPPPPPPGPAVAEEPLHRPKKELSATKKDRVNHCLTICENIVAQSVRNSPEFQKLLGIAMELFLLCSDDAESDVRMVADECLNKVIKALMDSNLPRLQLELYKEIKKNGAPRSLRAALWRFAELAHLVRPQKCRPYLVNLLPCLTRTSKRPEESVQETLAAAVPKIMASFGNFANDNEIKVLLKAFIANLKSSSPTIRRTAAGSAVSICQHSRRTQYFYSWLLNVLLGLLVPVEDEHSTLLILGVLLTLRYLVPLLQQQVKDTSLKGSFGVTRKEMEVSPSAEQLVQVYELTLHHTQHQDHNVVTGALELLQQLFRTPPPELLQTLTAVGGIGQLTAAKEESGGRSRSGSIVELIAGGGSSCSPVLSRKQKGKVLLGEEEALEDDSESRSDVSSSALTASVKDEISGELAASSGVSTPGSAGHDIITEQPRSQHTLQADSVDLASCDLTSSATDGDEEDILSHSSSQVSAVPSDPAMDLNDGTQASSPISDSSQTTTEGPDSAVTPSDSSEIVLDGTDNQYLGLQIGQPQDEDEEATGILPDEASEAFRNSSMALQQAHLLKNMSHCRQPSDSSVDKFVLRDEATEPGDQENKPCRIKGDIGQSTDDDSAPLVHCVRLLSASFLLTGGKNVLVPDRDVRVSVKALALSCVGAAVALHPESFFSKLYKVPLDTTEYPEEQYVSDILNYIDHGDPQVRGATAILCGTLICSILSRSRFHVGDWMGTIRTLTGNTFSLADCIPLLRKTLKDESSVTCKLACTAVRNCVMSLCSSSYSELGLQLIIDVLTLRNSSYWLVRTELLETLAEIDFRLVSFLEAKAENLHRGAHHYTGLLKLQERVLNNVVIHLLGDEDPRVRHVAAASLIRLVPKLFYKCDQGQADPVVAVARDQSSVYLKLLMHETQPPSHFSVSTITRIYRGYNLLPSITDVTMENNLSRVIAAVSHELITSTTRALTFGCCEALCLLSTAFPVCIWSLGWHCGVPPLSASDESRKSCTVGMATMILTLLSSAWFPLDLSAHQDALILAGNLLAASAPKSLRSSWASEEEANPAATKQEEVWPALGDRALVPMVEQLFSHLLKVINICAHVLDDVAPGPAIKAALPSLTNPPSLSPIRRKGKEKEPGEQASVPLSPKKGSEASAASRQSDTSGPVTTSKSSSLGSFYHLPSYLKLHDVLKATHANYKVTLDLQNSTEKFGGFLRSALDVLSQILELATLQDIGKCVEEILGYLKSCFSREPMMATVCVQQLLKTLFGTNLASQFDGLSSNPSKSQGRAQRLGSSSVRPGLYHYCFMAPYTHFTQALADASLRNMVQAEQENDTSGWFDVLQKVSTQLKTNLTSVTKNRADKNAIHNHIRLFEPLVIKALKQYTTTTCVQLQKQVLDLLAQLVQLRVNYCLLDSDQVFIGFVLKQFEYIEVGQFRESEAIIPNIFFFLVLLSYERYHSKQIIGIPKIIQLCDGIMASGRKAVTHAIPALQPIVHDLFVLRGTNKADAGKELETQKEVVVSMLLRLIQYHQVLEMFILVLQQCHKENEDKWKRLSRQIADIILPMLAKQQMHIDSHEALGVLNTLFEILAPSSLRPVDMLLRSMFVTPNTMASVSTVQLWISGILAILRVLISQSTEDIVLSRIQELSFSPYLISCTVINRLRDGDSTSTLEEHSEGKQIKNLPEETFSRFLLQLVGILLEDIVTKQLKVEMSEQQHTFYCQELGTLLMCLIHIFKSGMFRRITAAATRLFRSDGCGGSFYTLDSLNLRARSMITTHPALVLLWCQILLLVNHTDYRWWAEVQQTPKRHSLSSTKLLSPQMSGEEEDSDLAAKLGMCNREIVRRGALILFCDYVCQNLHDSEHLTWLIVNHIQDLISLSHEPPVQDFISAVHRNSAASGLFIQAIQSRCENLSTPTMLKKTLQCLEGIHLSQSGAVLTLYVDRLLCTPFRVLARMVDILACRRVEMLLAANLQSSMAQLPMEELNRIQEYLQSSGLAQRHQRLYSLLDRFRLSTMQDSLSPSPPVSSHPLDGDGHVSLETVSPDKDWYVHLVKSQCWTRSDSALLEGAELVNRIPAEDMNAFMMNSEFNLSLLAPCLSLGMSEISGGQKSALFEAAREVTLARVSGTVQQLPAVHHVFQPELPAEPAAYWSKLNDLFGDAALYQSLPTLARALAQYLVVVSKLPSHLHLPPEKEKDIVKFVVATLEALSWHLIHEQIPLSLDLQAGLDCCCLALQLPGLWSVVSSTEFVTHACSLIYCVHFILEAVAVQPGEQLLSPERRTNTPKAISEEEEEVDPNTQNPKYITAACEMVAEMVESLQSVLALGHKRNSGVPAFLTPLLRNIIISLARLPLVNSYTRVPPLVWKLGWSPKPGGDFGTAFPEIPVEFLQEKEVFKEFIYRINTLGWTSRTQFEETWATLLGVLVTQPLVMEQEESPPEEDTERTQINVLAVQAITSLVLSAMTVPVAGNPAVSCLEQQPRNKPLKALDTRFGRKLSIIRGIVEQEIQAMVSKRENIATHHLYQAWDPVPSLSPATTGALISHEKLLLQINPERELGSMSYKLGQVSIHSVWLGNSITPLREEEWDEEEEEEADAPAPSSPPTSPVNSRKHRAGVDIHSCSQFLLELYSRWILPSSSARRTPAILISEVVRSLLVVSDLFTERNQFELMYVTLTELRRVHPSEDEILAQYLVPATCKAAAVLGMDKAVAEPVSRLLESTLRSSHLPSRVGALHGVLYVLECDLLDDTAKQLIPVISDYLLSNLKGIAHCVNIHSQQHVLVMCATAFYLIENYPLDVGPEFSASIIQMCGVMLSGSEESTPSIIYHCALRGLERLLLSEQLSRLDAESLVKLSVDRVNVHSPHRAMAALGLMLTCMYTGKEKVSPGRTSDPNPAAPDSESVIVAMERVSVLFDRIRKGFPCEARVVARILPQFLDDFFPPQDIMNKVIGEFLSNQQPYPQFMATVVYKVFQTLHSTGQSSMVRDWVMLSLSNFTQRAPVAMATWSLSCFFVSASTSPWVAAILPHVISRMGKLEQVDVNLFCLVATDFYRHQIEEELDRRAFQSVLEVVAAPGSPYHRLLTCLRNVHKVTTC
T1 sequence (P23610 whole entry, stated change not applied): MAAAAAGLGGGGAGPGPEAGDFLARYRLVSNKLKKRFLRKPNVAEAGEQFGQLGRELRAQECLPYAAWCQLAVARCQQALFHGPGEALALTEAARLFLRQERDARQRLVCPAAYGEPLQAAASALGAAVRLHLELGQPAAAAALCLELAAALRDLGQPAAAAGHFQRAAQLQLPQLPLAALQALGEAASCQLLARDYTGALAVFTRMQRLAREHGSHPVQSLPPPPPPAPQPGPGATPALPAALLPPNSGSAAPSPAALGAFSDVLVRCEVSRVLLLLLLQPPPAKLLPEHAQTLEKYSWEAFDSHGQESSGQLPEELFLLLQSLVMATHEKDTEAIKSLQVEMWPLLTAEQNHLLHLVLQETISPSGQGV

For `CC[C@H](C)[C@@H]1NC(=O)[C@H](Cc2c[nH]c3ccccc23)NC(=O)[C@@H]2CCCN2C(=O)[C@H](C)NC(=O)[C@H](C(C)C)NC(=O)[C@H](CCC(N)=O)NC(=O)[C@H](Cc2ccccc2)NC(=O)[C@H](Cc2c[nH]cn2)NC(=O)[C@H]([C@@H](C)O)NC(=O)[C@H](Cc2ccc(O)cc2)NC(=O)CSC[C@@H](C(N)=O)NC(=O)[C@H](CC(C)C)NC(=O)[C@H](CO)NC(=O)[C@H](CCC(N)=O)NC1=O` [HL5] ({CH2CO}-YTHFQVAPWIQSLC-NH2; thioether N-14; C-terminus assumed), the “Enrichment of HAP40 in macrocycle pulldowns” value in the assay with HAP40 is on record as “not enriched”. At HTTQ23-HAP40, the “Cumulative ΔHDX of HTTQ23-HAP40 on incubation with macrocycle” value was “no statistically significant cumulative HDX differences”.

Source of the values: publication doi:10.1101/2025.08.06.668955, “High-Affinity, Structure-Validated and Selective Macrocyclic Peptide Tools for Chemical Biology Studies of Huntingtin” (bioRxiv, 2025).
